Assay results published in patent publication US8470889B2 (TRT Pharma Inc., priority 2008, dated 2013).

How the values were obtained:
[1] = system: NF-κB-dependent luciferase activity induced by expression of IKKi, TBK1, IKKb and p65; assay: NF-κB-dependent luciferase activity in HEK293 cells; assay type: cell-based; conditions: 24 h, FIG. 11A-C
Method: Compound 10 inhibits IKKβ, IKKε and TBK1 and suppresses NF-κB activation. […] HEK293 cells were transiently transfected with NF-κB-Luc or ISRE-Luc, co-transfected with plasmid encoding IKKi, TBK1, IKKb, p65 or IRF3 (5D), using Lipofectamine™ 2000 reagent (Invitrogen). The transfected cells were treated with DMSO vehicle and test compounds at designated doses for 24 h. Luciferase activity was evaluated using Dual Luciferase Assay System (Promega) and expressed as fold of induction related to the basal level of the reporter gene after normalization with cotransfected Renilla relative light units.
Now referring to FIG. 18, the impact of compounds 10, and SC345, SC346 and SC347 on the NF-κB-dependent luciferase activity induced by expression of TBK1 and IKKβ. HEK293 cells were transiently transfected with NF-κB-Luc, co-transfected with plasmid encoding TBK1 or IKKβ, using Lipofectamine™ 2000 reagent (Invitrogen). The transfected cells were treated with DMSO vehicle and test compounds at 2.5 μM for 24 h. Luciferase activity was evaluated using Dual Luciferase Assay System (Promega) and expressed as fold of induction related to the basal level of the reporter gene after normalization with cotransfected Renilla relative light units.

HP-LNCaP cells = assay: MTT cellular growth, HP-LNCaP; assay type: cell-based; conditions: FIG. 10
Method: HP-LNCaP cells were grown in the androgen-depleted medium (FIG. 9A) and grow more aggressively than LNCaP cells in the whole medium (FIG. 9B). Cellular growth was evaluated by MTT assays. […] HP-LNCaP cells over-express AR protein (FIG. 10C).

[2] = target: T1, hormone-binding pocket of the AR-LBD (Rattus norvegicus, UniProt P15207); assay: AR fluorescence polarization (FP) competitor assay; conditions: FIG. 8
T1 construct: purchased Invitrogen P3018
T1 sequence (P15207 651-882 limits assumed): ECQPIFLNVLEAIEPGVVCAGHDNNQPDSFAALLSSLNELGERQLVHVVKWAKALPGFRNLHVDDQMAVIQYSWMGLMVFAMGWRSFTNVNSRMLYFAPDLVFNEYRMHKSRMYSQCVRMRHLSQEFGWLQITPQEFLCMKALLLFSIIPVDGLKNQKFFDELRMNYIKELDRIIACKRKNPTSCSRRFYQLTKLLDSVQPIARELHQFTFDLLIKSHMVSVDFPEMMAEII
Description: The fluorescence polarization was used as a read-out and normalized to that of DMSO vehicle. Results are reported as average±s.d. of experiments performed in triplicates. DHT is included as a positive control.

Row | competitive binding to the hormone-binding pocket of the AR-LBD [2] | Compound | NF-κB-dependent luciferase activity induced by expression of IKKi, TBK1, IKKb and p65 [1] | activity against HP-LNCaP cells (HP-LNCaP cells)
1 | – | CC1(C)CCC(O)C=C1/C=C/C(=O)/C=C/c1csc2ccccc12 (stereo not drawn) [Compound B92] | potent effects | –
2 | competitive binding | CC1(C)CCC(O)C=C1/C=C/C(=O)/C=C/c1cnc2ccccc2c1 (stereo not drawn) [Compound B95] | – | remains active
